Read-outs that look alike come from different tables or passages of the source.
What was measured:
[1] = test system: Leimyosarcoma tumour cell line SK-UT-1B; test: Inhibition of the proliferation of cultivated human tumour cells (Test 2); type: cell-based; details: SK-UT-1B cells, 48 hours' incubation, then 14C-thymidine for a further 24 hours, inhibition of incorporated 14C-thymidine, read-out: Inhibition of SKUT-1B-proliferation IC50
Method: Inhibition of the Proliferation of Cultivated Human Tumour Cells
Cells of the Leimyosarcoma tumour cell line SK-UT-1B (obtained from the American Type Culture Collection (ATCC)) were cultivated in Minimum Essential Medium with non-essential amino acids (Gibco), supplemented with sodium pyruvate (1 mmol), glutamine (2 mmol) and 10% foetal calf serum (Gibco) and harvested during the log-growth phase. Then the SK-UT-1B cells were added to Cytostar® multi-well plates (Amersham) at a density of 4000 cells per well and incubated overnight in an incubator. Various concentrations of the compounds (dissolved in DMSO; final concentration: <1%) were added to the cells. After 48 hours' incubation ^14C-thymidine (Amersham) was added to each well and incubation was continued for a further 24 hours. The quantity of ^14C-thymidine incorporated into the tumour cells in the presence of the inhibitor and representing the number of cells in the S phase was measured in a Wallace 1450 Microbeta Liquid Scintillation Counter. IC50 values for the inhibition of proliferation (=inhibition of incorporated ^14C-thymidine) were calculated, correcting for the background radiation. All the measurements were done twice.
The Table which follows contains the results obtained in in vitro test 2: […]

Compound	IC50 ([1]; Homo sapiens, Skut1B) [µM]	melting point	IC50 [1] [µM]
O=C1Nc2ccc([N+](=O)[O-])cc2/C1=C(/Nc1ccc(CN2CCCCC2)cc1)c1ccccc1 [Example 170, (Z)-3-[1-(4-piperidinomethyl-phenylamino)-1-phenyl-methylidene]-5-nitro-2-indolinone]	0.22	242 to 243 °C	
O=C1Nc2ccc([N+](=O)[O-])cc2/C1=C(/Nc1ccc(CCN2CCOCC2)cc1)c1ccccc1 [Example 133, (Z)-3-{1-[4-(2-morpholinoethyl)-phenylamino]-1-phenyl-methylidene}-5-nitro-2-indolinone]	0.48	304 to 306 °C	
CN(C)CCc1ccc(N/C(=C2\C(=O)Nc3ccc([N+](=O)[O-])cc32)c2ccccc2)cc1 [Example 134, (Z)-3-{1-[4-(2-dimethylamino-ethyl)-phenylamino]-1-phenyl-methylidene}-5-nitro-2-indolinone]	0.56	238 to 240 °C	
CN1CCN(Cc2cccc(N/C(=C3\C(=O)Nc4ccc([N+](=O)[O-])cc43)c3ccccc3)c2)CC1 [Example 110, (Z)-3-{1-[3-(4-methylpiperazinomethyl)-phenylamino]-1-phenyl-methylidene}-5-nitro-2-indolinone]		256 to 258 °C	
O=C1Nc2ccc([N+](=O)[O-])cc2/C1=C(/Nc1ccc(CCN2CC=CCC2)cc1)c1ccccc1 [Example 269, (Z)-3-{1-[4-(2-(3,6-Dihydro-2H-pyridin-1-yl)-ethyl)-phenylamino]-1-phenyl-methylidene}-5-nitro-2-indolinone]		249 to 254 °C (dec.)	
O=C(CN1CCOCC1)Nc1ccc(N/C(=C2\C(=O)Nc3ccc([N+](=O)[O-])cc32)c2ccccc2)cc1 [Example 96, (Z)-3-[1-(4-morpholinomethylcarbonylamino-phenylamino)-1-phenyl-methylidene]-5-nitro-2-indolinone]		265 to 267 °C	
O=C1Nc2ccc([N+](=O)[O-])cc2/C1=C(/Nc1cccc(CN2CCCCC2)c1)c1ccccc1 [Example 108, (Z)-3-[1-(3-piperidinomethyl-phenylamino)-1-phenyl-methylidene]-5-nitro-2-indolinone]		214 to 215 °C	
CN(C(=O)CCNC(=O)OC(C)(C)C)c1ccc(N/C(=C2\C(=O)Nc3ccccc32)c2ccccc2)cc1 [Example 376, (Z)-3-{1-[4-(N-(2-tert.butoxycarbonylamino-ethylcarbonyl)-N-methyl-amino)-phenylamino]-1-phenyl-methylidene}-2-indolinone]		246 to 248 °C	
CCOC(=O)CNCCc1ccc(N/C(=C2\C(=O)Nc3ccc([N+](=O)[O-])cc32)c2ccccc2)cc1 [Example 178, (Z)-3-{1-[4-(2-ethoxycarbonylmethylamino-ethyl)-phenylamino]-1-phenyl-methylidene}-5-nitro-2-indolinone]		139 to 140 °C	
CCOC(=O)CCNCc1cccc(N/C(=C2\C(=O)Nc3ccc([N+](=O)[O-])cc32)c2ccccc2)c1 [Example 112, (Z)-3-{1-[3-(2-ethoxycarbonyl-ethylaminomethyl)-phenylamino]-1-phenyl-methylidene}-5-nitro-2-indolinone]		142 to 145 °C	

Second part, the compound after the results:

IC50 ([1]; Homo sapiens, Skut1B) [µM]	melting point	IC50 [1] [µM]	Compound
		0.15	CN(C)CCN(c1ccc(N/C(=C2\C(=O)Nc3ccccc32)c2ccccc2)cc1)S(C)(=O)=O [Example 188]
0.34	264 to 265 °C		CN(C)Cc1ccc(N/C(=C2\C(=O)Nc3ccc([N+](=O)[O-])cc32)c2ccccc2)cc1 [Example 117, (Z)-3-[1-(4-dimethylaminomethyl-phenylamino)-1-phenyl-methylidene]-5-nitro-2-indolinone]
	212 to 214 °C		O=C1Nc2ccccc2/C1=C(/Nc1ccc(C(=O)N2CCCCC2)cc1)c1ccccc1 [Example 387, (Z)-3-{1-[4-(piperidinocarbonyl)-phenylamino]-1-phenyl-methylidene}-2-indolinone]
	266 to 268 °C		CS(=O)(=O)N(CC#N)c1ccc(N/C(=C2\C(=O)Nc3ccccc32)c2ccccc2)cc1 [Example 187, (Z)-3-{1-[4-(N-cyanomethyl-N-methylsulphonyl-amino)-phenyl-amino]-1-phenyl-methylidene}-2-indolinone]
	278 to 280 °C		CN(C(=O)CN1C(=O)c2ccccc2C1=O)c1ccc(N/C(=C2\C(=O)Nc3ccccc32)c2ccccc2)cc1 [Example 365, (Z)-3-{1-[4-(N-phthalimidomethylcarbonyl-N-methyl-amino)-phenylamino]-1-phenyl-methylidene}-2-indolinone]
	215 to 218 °C		CN(C)CCN(C=O)c1ccc(N/C(=C2\C(=O)Nc3ccc([N+](=O)[O-])cc32)c2ccccc2)cc1 [Example 327, (Z)-3-{1-[4-(N-(2-dimethylaminoethyl)-N-formyl-amino)-phenylamino]-1-phenyl-methylidene}-5-nitro-2-indolinone]
	246 to 247 °C		CN(C(=O)CN1CCCC1)c1ccc(N/C(=C2\C(=O)Nc3ccc([N+](=O)[O-])cc32)c2ccccc2)cc1 [Example 364, (Z)-3-{1-[4-(N-(pyrrolidin-1-ylmethylcarbonyl)-N-methyl-amino)-phenylamino]-1-phenyl-methylidene}-5-nitro-2-indolinone]
	228 to 230 °C		CCOC(=O)CN(c1ccc(N/C(=C2\C(=O)Nc3ccccc32)c2ccccc2)cc1)S(=O)(=O)CC [Example 297, (Z)-3-{1-[4-(N-ethoxycarbonylmethyl-N-ethylsulphonyl-amino)-phenylamino]-1-phenyl-methylidene}-2-indolinone]
	267 to 270 °C		COc1ccc(N/C(=C2\C(=O)Nc3ccccc32)c2ccccc2)cc1 [Example 2, (Z)-3-[1-(4-methoxy-phenylamino)-1-phenyl-methylidene]-2-indolinone]
	138 to 140 °C		CN(C)CCN(C)C(=O)CN(c1ccc(N/C(=C2\C(=O)Nc3ccc([N+](=O)[O-])cc32)c2ccccc2)cc1)S(C)(=O)=O [Example 294, (Z)-3-{1-[4-(N—((N-(2-dimethylaminoethyl)-N-methyl-amino)-carbonylmethyl)-N-methylsulphonyl-amino)-phenylamino]-1-phenyl-methylidene}-5-nitro-2-indolinone]
	196 to 199 °C		CCOC(=O)CNS(=O)(=O)c1ccc(N/C(=C2\C(=O)Nc3ccccc32)c2ccccc2)cc1 [Example 406, (Z)-3-{1-[4-(ethoxycarbonylmethylaminosulphonyl)-phenylamino]-1-phenyl-methylidene}-2-indolinone]
